According to patent publication US7332482B2, “Method for treating benign prostatic hyperplasia” (BioXell S.p.A., priority 2003, dated 2008):
“Also recorded” adds a separate entry of the source.

Experiments:
5α reductase type 2 = target: T1, 5α reductase type 2 (Homo sapiens, UniProt P31213); experiment: 5α reductase inhibition test in CHO 1829 cells; assay type: cell-based; settings: 10^−9 to 10^−5 M
T1 construct: host or cells: CHO 1829
T1 sequence (P31213 1-254): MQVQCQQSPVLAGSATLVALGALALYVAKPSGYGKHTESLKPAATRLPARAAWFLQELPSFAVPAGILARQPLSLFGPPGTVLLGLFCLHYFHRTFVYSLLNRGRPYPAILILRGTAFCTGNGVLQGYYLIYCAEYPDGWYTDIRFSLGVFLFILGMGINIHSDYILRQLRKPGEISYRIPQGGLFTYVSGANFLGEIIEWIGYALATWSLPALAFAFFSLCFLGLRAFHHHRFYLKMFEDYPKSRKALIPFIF
Procedure: CHO-1827 and CHO-1829 cells, transfected with 5α reductase type 1 (5αR-1) or type 2 (5αR-2), respectively (see Steers W. Urology (2001) 58 p 17-24), were maintained in Ham's F12 medium supplemented with 5% FCS.
5α reductase inhibition assay was performed using CHO 1827 cells, transfected with 5αR-1, or CHO 1829 cells, transfected with 5αR-2, as described (see Guarna A, et al. Journal of Medicinal Chemistry (2000) 43 3718-3735.). Compound A was added in a concentration range from 10^−9 to 10^−5 M, using finasteride as a control inhibitor in each experiment.

rat ventral prostate = experiment: Ventral prostate growth in castrated, T enanthate-supplemented rats; assay type: in vivo; settings: castrated rats + T enanthate 30 mg/Kg/week; oral, 9 administrations; Compound A 10-300 μg/Kg, finasteride 10, 40 mg/Kg
Procedure: Male Sprague Dawley rats (28 days old) were purchased from Charles River Laboratories (Calco, Lecco, Italy). All animal experimentation described was conducted in accord with accepted standards of animal care. Castration was performed via the scrotal route under ketamine/xylazine anaesthesia.

prostate = experiment: 9-month toxicity study in male beagle dogs (prostate weight); assay type: in vivo, dog
Procedure: A 9-month toxicity study was carried out in four groups of male beagle dogs, which were treated by daily oral gavage with 0.5 μg, 1.5 μg and 5 μg/kg body weight/day of Compound A (in vehicle Miglyol 812) or with vehicle alone. This treatment was followed by a 2-month recovery period for the group receiving the highest dose, 5 μg, after which prostate weights was measured.

[1] = tested on: prostate volume in patients with BPH; experiment: Randomised double blind placebo controlled study in patients with BPH; assay type: in vivo, human
Procedure: A randomised double blind placebo controlled parallel group study was performed to determine the effect of Compound A (1-alpha-fluoro-25-hydroxy-16,23E-diene-26,27-bishomo-20-epi-cholecalciferol) in patients with BPH.
The principal inclusion criterion was that male patients be diagnosed with BPH and have prostate volume >40 ml as determined by transrectal ultrasound (TRUS).
Statistical methods: primary efficacy analyses were planned on Per-Protocol (PP) Population and, as support, the same analyses were to be done on Intent-to-treat population. Patients evaluatable for the Per-Protocol analysis were all randomized patients compliant to protocol criteria who completed the whole course of study without major protocol violations and have valid assessments of prostate volume. Patients valid for intent-to-treat (ITT) population were all randomized patients who received at least one dose of trial medication and for whom the prostate volume at baseline and at 12 weeks visit were available.
All patients randomized who took at least one dose of study drug were evaluated for safety analysis.
The primary efficacy variable was the percentage change of prostate volume, measured by centralized MRI axial scanning. An ANOVA model was used for the analysis, with treatment and center as fixed effects.
Study participants received 150 μg capsule (as per Example 4A with drug omitted in the case of placebo) once daily in the morning. The treatment period was 12 weeks.

bladder strips = experiment: In vitro contractility of bladder strips from BOO rats; parameters: species or system rat; settings: strips from treated rats
Procedure: After completion of the cystometries, the rats were sacrificed by carbon monoxide asphyxiation followed by exsanguination. The abdomen was accessed through a lower midline incision whereafter the symphysis was opened. The bladder was carefully dissected free, and immediately placed in chilled Krebs solution, and strip preparations were dissected.
The bladder and urethra were separated at the level of the bladder neck, and semicircular strips were prepared from the middle third of the detrusor (1×2×5 mm). All preparations were used immediately after removal.
The strips were transferred to 5 ml tissue baths containing Krebs solution. The Krebs solution was maintained at 37° C. and bubbled continuously with a mixture of 95% O2 and 5% CO2, resulting in a pH of 7.4. The strips were suspended between two L-shaped hooks by means of silk ligatures. One hook was connected to a movable unit allowing adjustment of passive tension, and the other to a Grass FT03C (Grass Instruments Co, MA, USA) force transducer. Isometric tension was recorded using a Grass polygraph (7D). After mounting, the strips were stretched to a passive tension of 4 mN (the same tension for all preparations) and allowed to equilibrate for 45-60 min before further experiments were performed.
Electrical field stimulation (EFS) was accomplished by means of two platinum electrodes placed on either side of the preparations, and was performed using a Grass S48 or S88 stimulator, delivering single square wave pulses at selected frequencies. The train duration was 5 s, the pulse duration 0.8 ms, and the stimulation interval 2 min. The polarity of the electrodes was shifted after each pulse by means of a polarity changing unit.
Each experiment was started by exposing the preparations to a high K^+ (124 mM) Krebs solution until two reproducible contractions are obtained. […]

Q: C=C1/C(=C\C=C2/CCC[C@]3(C)C([C@@H](C)C/C=C/C(O)(CC)CC)=CC[C@@H]23)C[C@@H](O)C[C@@H]1F [Compound A, 1-alpha-fluoro-25-hydroxy-16,23E-diene-26,27-bishomo-20-epi-cholecalciferol] was tested. Which “interference with 5α reductase type 2” value (5α reductase type 2) did it give?
A: Its value is “did not interfere with either isoenzyme up to the micromolar range”.

Q: What about the “effect on T-stimulated prostate over-growth (ventral prostate weight)” value (rat ventral prostate) of the same compound?
A: Its value is “completely blunted”.

Q: And the “prostate weight after recovery” value (prostate; 5 μg/kg/day 9 months then 2-month recovery, vs vehicle)?
A: Its value is “reduction of prostate weight”.

Q: What about the toxicity data (prostate; 9 months daily oral gavage) of the same compound?
A: Its toxicity data is “entirely favourable toxicity data”.

Q: And the “prostate weight at end of treatment” value (prostate; 9 months daily oral gavage, 0.5, 1.5, 5 μg/kg/day, vs vehicle)?
A: Its value is “lower prostate weight; also recorded: clear reduction of prostate weight”.

Q: What about the severe adverse events ([1]; 12 weeks) of the same compound?
A: Its severe adverse events is “no severe adverse event was reported”.

Q: What about the proportion of responders ([1]; ITT population) of the same compound?
A: Its proportion of responders is 28.8%.

Q: What about the “reduction of prostate volume vs placebo” value ([1]; ITT population, axial scanning) of the same compound?
A: The value was “more effective than placebo”.

Q: And the “mean difference of prostate volume vs baseline in non responder patients” value ([1]; PP population)?
A: Its value is 3.93±0.8.

Q: What about the “mean difference of prostate volume vs baseline in unchanged patients” value ([1]; PP population) of the same compound?
A: The value was −0.35±2.3.

Q: What about the “mean reduction of prostate volume vs baseline in responder patients” value ([1]; PP population) of the same compound?
A: The value was −6.88±2.5.

Q: What about the “percentage change of prostate volume, paraxial acquisition” value ([1]; PP population) of the same compound?
A: The value was −1.30±6.9%.

Q: And the “percentage change of prostate volume, transitional scanning” value ([1]; PP population)?
A: The value was −0.22±9.6%.

Q: What about the “proportion of patients not responder” value ([1]; PP population) of the same compound?
A: The value was 7.5%.

Q: What about the proportion of responders ([1]; PP population) of the same compound?
A: Its proportion of responders is 27.5%.

Q: And the “proportion of unchanged patients” value ([1]; PP population)?
A: The value was 65%.

Q: What about the “percentage change in prostate volume, axial scanning” value ([1]; PP population, 150 μg once daily, 12 weeks, MRI) of the same compound?
A: The value was −1.89±5.2%.

Q: What about the “estimate of difference between treatments (Compound A minus placebo), percentage change in prostate volume” value ([1]; PP population, axial scanning, 95% confidence limit −9.54 and −4.94) of the same compound?
A: Its value is −7.24.

Q: What about the “number of patients with adverse events related to treatment” value ([1]; safety population) of the same compound?
A: The value was 3.

Q: What about the “patients with adverse events related to treatment” value ([1]; safety population) of the same compound?
A: Its value is 5.26%.

Q: What about the “number of patients with at least one adverse event” value ([1]; safety population, 57 randomised) of the same compound?
A: The value was 17.

Q: What about the “calciuria values over the course of the study” value ([1]; vs Placebo group) of the same compound?
A: The value was “did not differ significantly”.

Q: What about the “response of bladder strips to EFS” value (bladder strips) of the same compound?
A: Its value is “beneficial effect”.

Q: And the “response of bladder strips to carbachol” value (bladder strips)?
A: Its value is “beneficial effect”.

Q: What about the “K response of bladder strips” value (bladder strips; high K+ 124 mM) of the same compound?
A: Its value is “beneficial effect”.
